The source of these data is patent US9896471B2, “Salt of 1-(2-deoxy-2-fluoro-4-thio-β-D-arabinofuranosyl)cytosine” (FUJIFILM Corporation, priority 2012, dated 2018).

Data set [1] relates to BxPC-3. Nature of the data set: Antitumor activity: cell proliferation inhibition (ATPlite). It is filed as cell-based. The conditions noted are these: BxPC-3, 1000 cells/well, 3 days culture. How it is done:
(§1) Cells at the logarithmic phase were inoculated on a 96-well plate at a density of 1000 cells/well (BxPC-3, MIA PaCa-2) or 3000 cells/well (Capan-1), and cultured overnight at 37° C. in a CO2 incubator. On the next day, serially diluted solutions of each test compound were added, and culture was performed for 3 days in an incubator. After completion of the culture, by using a cell proliferation assay kit ATPlite (Perkin Elmer), and a plate reader Envision (Perkin Elmer), emission was measured. Concentrations of the test compounds providing 50% of cell proliferation inhibition (IC50) were calculated by fitting using a sigmoid function. The solutions of the test compounds were prepared by diluting them with PBS (pH 7.4) at 10 mM, and further diluting the 10 mM solutions with PBS (pH 7.4), and used in the test.

Data set [2] concerns Capan-1. The description is as above. It is filed as cell-based. The note with it: Capan-1, 3000 cells/well, 3 days culture. The protocol: as §1
Data set [3] concerns MIA PaCa-2. The description is as above. The format is cell-based. The conditions noted are these: MIA PaCa-2, 1000 cells/well, 3 days culture. The protocol: as §1
A short description of data set [4]: Flowability test (compaction rate). The format is physicochemical. The note with it: powder sieved 177 μm mesh; (compacted − loose bulk density)/compacted bulk density × 100. An excerpt:
The obtained powdery sample was roughly filled in a glass measuring cylinder (10 cm^3), the upper surface of the powder layer was horizontally smoothened, and the value of the volume was read. The weight of the powdery sample was divided with the volume to obtain loose bulk density (g/cm^3).
Then, the glass measuring cylinder filled with the powdery sample was tapped by using a general powdery characteristic measuring apparatus (Powdertester Type PT-E, Hosokawa Micron CORP.). When the volume of the powder layer no longer changed, the value of the volume was read. The weight of the powdery sample was divided with the volume to obtain compacted bulk density (g/cm^3).
The compaction rate (%) was obtained in accordance with the following equation. Compaction rate (%)=[(Compacted bulk density−Loose bulk density)/Compacted bulk density]×100

A short description of data set [5]: Tableting property test. The format is physicochemical. The note with it: average of five tabletings; 5 points surface has gloss, 1 point surface is chipped, 0 point tablets stick to pestle; 1000 kgf, 100 mg tablet. How it is done: The obtained powdery sample was compression-molded by using a tableting machine (Tableting Machine HT-P18A, Hata Iron Works, Ltd.; tableting diameter, 6.5 mm; tableting pressure, 1000 kgf; tablet weight, 100 mg) to obtain tablets. The obtained tablets were macroscopically observed, and graded according to the following criteria.
5 Points: Surface has gloss.
4 Points: Surface is slightly roughened.
3 Points: Surface is roughened.
2 Points: Surface is slightly chipped.
1 Point: Surface is chipped.
0 Point: Tablets stick to pestle, and cannot be unstuck.
The tableting was performed five times, and averages of the scores of the tablets were calculated.

The test system of data set [6] is tumors. The note with it: orally administered to mice; Non-patent documents 1 and 2; cited from earlier work.
Data set [7] is described as follows: Solubility test in water.
Method: Each of the test compounds and the comparative compound was added to water, and the mixture was stirred at room temperature for 24 hours. The insoluble matter was removed by filtration using a membrane filter (0.2 μm). The filtrate was analyzed by high performance liquid chromatography (HPLC) to obtain the solubility.
The nature of data set [8]: Stability test (deliquescence on storage). It is filed as physicochemical. The conditions noted are these: stored 2 weeks, open state, 60° C. and 75% relative humidity, macroscopic observation. The protocol: The compounds of Examples 1 and 2 were stored for 2 weeks in an open state under conditions of 60° C. and 75% relative humidity. The test compounds were macroscopically observed after the storage, and presence or absence of deliquescence was examined.

Values after ≈ are worked out from the molar mass of the structure shown.

In general, IC50 refers to the concentration that inhibits the measured activity by half. What is called solubility is the dissolved amount per volume that the medium holds. A high value points to a readily soluble substance. Turning to `Nc1ccn([C@@H]2S[C@H](CO)[C@@H](O)[C@@H]2F)c(=O)n1` [Comparative compound, 1-(2-deoxy-2-fluoro-4-thio-β-D-arabinofuranosyl)cytosine], the IC50 worked out at 45 nM in data set [1] (Homo sapiens, 72 h); 35 nM in data set [2] (Homo sapiens, 72 h); 382 nM in data set [3] (Homo sapiens, 72 h). For the same compound, the Compaction rate in data set [4] worked out at 41%. For the same compound, the “Score (tableting property)” value in data set [5] was 1.0. In data set [6], the antitumor activity result is “potent antitumor activity”. Moreover, the concentration in solution in data set [7] (thermodynamic from solid) (solubility at 24 h) was 2000 µg/mL (≈ 7.65 mM).

Consider `CS(=O)(=O)O.Nc1ccn([C@@H]2S[C@H](CO)[C@@H](O)[C@@H]2F)c(=O)n1` [Example 1, methanesulfonate of 1-(2-deoxy-2-fluoro-4-thio-β-D-arabinofuranosyl)cytosine], for which the results for the concentration for half-maximal inhibition (IC50) in data set [1], in data set [2] and in data set [3] were 45 nM, 36 nM and 373 nM, respectively. In addition, the “presence or absence of deliquescence” value in data set [8] is “did not deliquesce”. Moreover, in data set [4], the Compaction rate amounted to 18%. In addition, the “Score (tableting property)” value in data set [5] turned out to be 4.5. Moreover, the Solubility in water in data set [7] (room temperature, stirred 24 hours, 0.2 μm filtration, HPLC) came out at 79000 µg/mL.

Turning to `Cl.Nc1ccn([C@@H]2S[C@H](CO)[C@@H](O)[C@@H]2F)c(=O)n1` [Example 2, hydrochloride of 1-(2-deoxy-2-fluoro-4-thio-β-D-arabinofuranosyl)cytosine], the IC50 in data set [1] is 41 nM; in data set [2] it was 31 nM; in data set [3], 417 nM. Also, the “presence or absence of deliquescence” value in data set [8] is given as “did not deliquesce”. Also, in data set [4], the Compaction rate turned out to be 21%. For the same compound, in data set [5], the “Score (tableting property)” value was 5.0.
